Test results as given in paper PMC6687188, “Novel lactate dehydrogenase inhibitors with in vivo efficacy against Cryptosporidium parvum” (PLoS Pathogens, 2019).

Molecular target: recombinant CpLDH protein (Cryptosporidium parvum, UniProt Q9GT92, F198L/K295E/R251K)

| SMILES | MEAN CpLDH INHIBITION (%) |
| --- | --- |
| O=C1C=C(Nc2ccccc2C(=O)CC(=O)C(=O)Nc2ccc(Cl)c(Cl)c2)c2ccccc2C1=O [NSC641250] | -16.86% |
| O=C1C=C(Nc2ccccc2C(=O)CC(=O)C(=O)Nc2ccc(Cl)cc2)c2ccccc2C1=O [NSC641253] | -12.80% |
| COc1ccc(/C(=N/O)C(c2ccc(OC)cc2)C2C(=O)Oc3ccccc32)cc1 (centres unmarked) [NSC641607] | -85.63% |
| CCc1cccc(C(C)C)c1NC(=O)/C(=N\NC(N)=O)C(C(=O)OC)c1cnc2ccccc2n1 (centres unmarked) [NSC642033] | -12.26% |
| COC(=O)C(=O)C(C(=O)C(=O)Nc1cc(C)ccc1C)c1nc2ccc(C(=O)c3ccccc3)cc2[nH]c1=O (centres unmarked) [NSC642040] | -9.38% |
| Cc1nc(C(N)=S)sc1C(=O)CC(=O)C(=O)Nc1c(C(C)C)cccc1C(C)C [NSC642048] | -4.29% |
| O=C(c1nc2ccc(Cl)cc2[nH]c1=O)C(O)c1ccc2c(c1)OCO2 (centres unmarked) [NSC642649] | -27.23% |
| N#CC(C#N)=Cc1ccc(Oc2ccccc2)cc1 [NSC643028] | -52.45% |
| N#CC(C#N)=Cc1cccc(Oc2ccccc2)c1 [NSC643031] | -51.68% |
| O=C1c2ccccc2C(=O)C1C(c1ccc([N+](=O)[O-])cc1)C1C(=O)c2ccccc2C1=O [NSC643148] | -12.75% |
| CN(C)c1ccc(/C=C2\CCc3ccccc3C2=O)cc1Br [NSC643162] | -31.17% |
| CN(C)c1ccc(/C=C2\Cc3ccccc3C2=O)cc1Br [NSC643163] | -30.02% |
| CN(C)c1ccc(/C=C/C(=O)c2ccccc2)cc1Br [NSC643164] | -21.20% |
| COc1ccc(/C=C2\Cc3ccccc3C2=O)cc1OC [NSC643174] | -15.39% |
| COc1ccc(/C=C2\CCc3ccccc3C2=O)cc1OC [NSC643175] | -25.23% |
| N#C/C(=C\c1ccc2ccccc2c1)C(=O)c1ccccc1 [NSC643186] | -12.83% |
| CN(C)c1ccc(/C=C/C(=O)[O-])cc1.CN(C)c1ccc(/C=C/C(=O)[O-])cc1.[Cu+2] [NSC643351] | -4.10% |
| COc1ccc(N=Cc2ccc(N(CCC#N)S(=O)(=O)c3ccccc3)cc2C)cc1 [NSC643599] | -33.57% |
| CCOC(=O)/C(=C/c1ccc(N(C)C)cc1)N(CC)CC [NSC643774] | -24.42% |

| SMILES | MEAN CpLDH INHIBITION (%) |
| --- | --- |
| CCCC/C=C/C=C/C=C/CCCCCCCC(=O)OCC(COC(=O)CCCCCCC/C=C/C1C=CC(CCCC)C(C(=O)O)C1C(=O)O)OC(=O)CCCCCCC/C=C/C=C/C=C/CCCC.OCCNCO (centres unmarked) [NSC643834] | -1.59% |
| CCOC(=O)C1=C(C)NC(=S)NC1c1ccccc1 (centres unmarked) [NSC643910] | -38.49% |
| Cc1ccccc1NC(=O)C(=O)C(c1cnc2ccc([N+](=O)[O-])cc2n1)[N+](=O)[O-] (centres unmarked) [NSC644735] | -56.47% |
| O=C(Nc1cccc(C(F)(F)F)c1)C(=O)C(C(=O)c1ccc(Cl)c(Cl)c1)C1OC(=O)c2ccccc21 (centres unmarked) [NSC644794] | -17.50% |
| Clc1ccc(-c2c(C3=NCCCN3)nnn2-c2ccc(Cl)cc2)cc1 [NSC645033] | -3.66% |
| CC(C)OP(=O)(OC(C)C)C(N(C)C)P(=O)(OC(C)C)OC(C)C.[Cl][Sn]([Cl])([Cl])[c]1ccccc1 [NSC645567] | -28.84% |
| CN(C)C(=S)/N=c1\ssc(=S)n1Cc1ccccn1 [NSC645617] | -28.16% |
| Oc1cc(-n2cccn2)c(O)cc1-n1cccn1 [NSC645987] | -40.48% |
| CCOC(OC1=C(C#N)CCC1)C(C)[Se]c1ccccc1 (centres unmarked) [NSC646189] | -21.95% |
| CCOC(OCC)C(CC)[Se]c1ccccc1[N+](=O)[O-] (centres unmarked) [NSC646200] | -24.52% |
| COc1cc(/C=C(\OC(C)=O)c2ccc3c(c2)OCO3)cc(OC)c1OC [NSC647363] | -3.74% |
| CN/N=C(\C)C(CN1CCCCC1)C(C1=C(O)c2ccccc2OC1)c1ccccc1.Cl (centres unmarked) [NSC647418] | -56.81% |
| O=C1Oc2ccccc2C1C/C(=N\Nc1ccccc1)c1ccccc1O (centres unmarked) [NSC647613] | -29.39% |
| COc1cc(CC(=O)c2cc3c(cc2-c2ccccc2)OCO3)cc(OC)c1OC [NSC648419] | -12.60% |
| COc1cc(/C=C(\C)c2ccc3c(c2)OCO3)cc(OC)c1OC [NSC648422] | -69.44% |
| Cc1nc2c(o1)C(=O)c1ccccc1C2=Nc1ccccc1 [NSC650573] | -21.28% |
| Cc1ccc(S(=O)(=O)N2CCSCCSCCSCCSCC2)cc1 [NSC650792] | -46.61% |
| CCC(=O)OC1CCn2c1nc1c2C(=O)C(C)=C(N2CC2)C1=O (centres unmarked) [NSC651079] | -28.42% |
| CC1=C(N2CC2)C(=O)c2nc3n(c2C1=O)CCC3OC(=O)CCl (centres unmarked) [NSC651080] | -28.90% |

| SMILES | MEAN CpLDH INHIBITION (%) |
| --- | --- |
| COCC(=O)OC1CCn2c1nc1c2C(=O)C(C)=C(NC(C)=O)C1=O (centres unmarked) [NSC651084] | -15.88% |
| OCc1ccc(-c2ccc(-c3ccc(CO)s3)o2)s1 [NSC652287] | -15.92% |
| OCCNCN(CNCCO)c1nc(N(CNCCO)CNCCO)nc(N(CNCCO)CNCCO)n1 [NSC653000] | -58.42% |
| C[CH2][Ge]([CH2]C)([CH2]C)[O]C(=O)CCC(=O)[O][Ge]([CH2]C)([CH2]C)[CH2]C [NSC653558] | -17.98% |
| Cc1cc(NC(=O)NC(=O)c2ccccc2NC(=O)CN)ccc1Oc1ncc(Br)cn1.Cl [NSC654259] | -46.44% |
| COC(=O)c1ccc(NCc2cc(O)ccc2O)cc1 [NSC654705] | -2.14% |
| O=C(O)c1cc(CCc2cc(O)ccc2O)ccc1O [NSC655255] | -35.82% |
| CCN1CCC(O)(/C=C/c2ccc(C)cc2)C(C(=O)/C=C/c2ccc(C)cc2)C1.Cl (centres unmarked) [NSC657298] | -42.34% |
| COc1ccccc1/C=C1\Sc2scc(-c3cccc([N+](=O)[O-])c3)[n+]2C1=O.[Cl-] [NSC657446] | -8.01% |
| Cc1cc(O)c(/C=N/C(N)=S)c(=O)o1 [NSC657449] | -13.90% |
| Oc1[nH]c2ccccc2c1N=Nc1nc(-c2ccc(Br)cc2)cs1 [NSC657456] | -18.36% |
| COc1cc(/C=C2\S/C(=N/Nc3nc(-c4ccc(Br)cc4)cs3)NC2=O)cc(OC)c1OC [NSC657457] | -150.87% |
| O=C1/C(=C/c2ccc([N+](=O)[O-])cc2)Sc2scc(-c3cccc([N+](=O)[O-])c3)[n+]21.[Cl-] [NSC657598] | -68.44% |
| CCCn1c(=O)c2ccccc2[n+]2c(-c3ccc([N+](=O)[O-])cc3)csc12.[Br-] [NSC657603] | -45.82% |
| Cc1cccc(C)c1NC(=O)C(=O)C(c1ccccc1Cl)S(=O)(=O)Cc1ccccc1Cl (centres unmarked) [NSC657722] | -170.05% |
| O=[N+]([O-])c1ccc2c(c1)/C(=N/N=C1c3ccccc3Cc3ccccc31)c1cc([N+](=O)[O-])cc([N+](=O)[O-])c1-2 [NSC658139] | -4.51% |
| O=C1C=C(N2CCNCC2)C(=O)c2c(O)ccc(O)c21 [NSC658144] | -3.51% |
| CC(=O)c1sc2[n+](c1C)C(=O)/C(=C\c1ccccc1Cl)S2 [NSC658285] | -36.39% |
